Laboratory results from US6376551B1, “Treatment of chronic fatigue syndrome” (Knoll Pharmaceutical Company, priority 1999, dated 2002).

What was measured:
[1] = biological target: [3H]Noradenaline reuptake in rat brain tissue; test: in vitro [3H]noradrenaline reuptake inhibition in rat brain tissue; format: biochemical; details: means of >3 separate determinations
[2] = biological target: [3H]Dopamine reuptake in rat brain tissue; test: in vitro [3H]dopamine reuptake inhibition in rat brain tissue; format: biochemical; details: means of >3 separate determinations

SMILES	Ki [1] [nM]	Ki [2] [nM]
CC(NC(C)(C)C)C(=O)c1cccc(Cl)c1 (stereo not shown) [Bupropion]	2590	409
COc1ccc(C(CN(C)C)C2(O)CCCCC2)cc1 (stereo not shown) [Venlafaxine]	196	2590
